# Where two headings read alike, the source gives them in different places.
# Experiment: Swimming test according to Porsolt (forced swim, motor activity / immobility phases)
# Format: in vivo
# Settings: Ratte; for minimal effective dose: read-out: niedrigste, bereits wirksame Dosis
# Text: Die erfindungsgemäßen Verbindungen der Formel I zeigen zum Beispiel im Schwimm-Test nach Porsolt eine gute dosisabhängige antidepressive Wirkung.
# Der Schwimm-Text an der Ratte erfolgt in Anlehnung an die Methode von Porsolt (Porsolt, R.D., A. Bertin and M. Ialfre, 1977, Behavioral despair in mice, Arch. Intern. Pharmacodyn. Ther. 229, 327): Hierzu werden Ratten einzeln in einen mit Wasser gefüllten Plastikbehälter gesetzt. Die Höhe des Behälters ist 30 cm, die Länge beträgt 35 cm und die Breite 20 cm. Das Wasser hat eine Temperatur von 25° C und die Tiefe ist 20 cm. Die Schwimmaktivitäts- beziehungsweise die Immobilisationsphasen der Tiere werden mit Hilfe eines motor activity meters über 15 Minuten in einem Abstand von 1 Minute (Impulse/Min.) registriert. Im Normalfall (das heißt ohne Antidepressivum) machen die Tiere nur für kurze Zeit Schwimmbewegungen und lassen sich dann treiben. Die Zunahme der Aktivitäts- beziehungsweise Abnahme der Immobilisationsphasen (die Tiere schwimmen nicht, sondern lassen sich treiben) gilt als Maß für die antidepressive Wirkung einer Substanz. Die antidepressive Wirkung wird als Wirkung in % für eine bestimmte Dosis antidepressive Wirksubstanz angegeben bezogen auf eine Kontrollgruppe, die keine Wirkstubstanz bekommen hat.
smiles,measurement,setting,value
"Clc1cccc(SC2CCNCC2)n1 [Anpirtolin, 6-Chlor-2-piperidyl-(4)-thio-pyridin]",antidepressive Wirkung (Wirkung in %),"Dosis 6 mg/kg Körpergewicht, intraperitoneale Applikation, relative to control group without active substance",50%
same,minimal effective dose,oral,20 mg/kg
same,minimal effective dose,"iv, intravenös",0.5 mg/kg
